US8119657B2, “Enantiomeric compositions of 2-amino-1-(2-isopropylpyrazolo[1,5-α]pyridin-3-yl)propan-1-one and related methods” (MediciNova, Inc., priority 2009, dated 2012)
“Also recorded” adds a separate entry of the source.

Assays:
[1] = In vivo interconversion of enantiomers in rats dosed with enantiomerically pure (S)-AV1013; parameters: species or system rat; conditions: rats dosed with (S)-AV1013 of 99% enantiomeric excess, LLOQ=5 ng/mL
[2] = test system: rat chronic constriction injury model of neuropathic pain; assay: Rat chronic constriction injury model of neuropathic pain (von Frey mechanical allodynia); format: in vivo; conditions: rat CCI, oral 25 mg/kg, 2 hours post-dosing, 25 mg/kg
From the text: The (S)- and the (R)-enantiomer of AV1013 were each evaluated in a rat chronic constriction injury model of neuropathic pain (see, Ledeboer et. al., Neuron Glia Biology, (2006), p 279-291), to determine whether differences in their activity could be observed.
To induce allodynia, male Sprague-Dawley rats underwent chronic constriction injury (CCI) to the sciatic nerve as described by Bennett and Xie, Pain 1988; 33(1):87-107. The plantar surface of the hind paws was stimulated with von Frey filaments (Stoelting) to induce a withdrawal response by blinded personnel. The bending force of fiber required to induce a 50% withdrawal response was calculated following CCI surgery (pre-dosing baseline).
Allodynic rats (N=5-6), received an oral administration of (S)-AV1013 (25 mg/kg), AV1013-R (100 mg/kg) or vehicle. Two hours post-dosing, 50% paw withdrawal threshold was determined by blinded testers using von Frey filaments. The 50% withdrawal threshold prior to CCI surgery, pre-dosing (10 days post-surgery), and 2 hours post-dosing are plotted in FIG. 3.

[3] = test system: rat morphine withdrawal model; assay: Rat morphine withdrawal model (naloxone-precipitated); format: in vivo; conditions: rats, 25 mg/kg PO QD for 7 days
Method: The ability of (S)-AV1013 to reduce/ameliorate withdrawal behavior relative to a control was evaluated in rats. The study was conducted in accordance with the method disclosed by Hutchinson et. al., Brain Behavior and Immunity, V. 23, (2009), p 240-250.
Rats were administered morphine in escalating doses over a five day period to induce dependence (15-22.5 mg/kg/day). (S)-AV1013 (25 mg/kg PO QD) or vehicle (saline) administration was initiated two days prior and continued concomitant with the morphine dosing regimen for a total of 7-days. On day seven all animals were administered naloxone SC to precipitate withdrawal symptoms. Specific withdrawal behaviors were scored over 6×, 10 minute intervals. A total of 15 rats per group were evaluated.

[4] = molecular target: T1, rhMIF (recombinant human Macrophage migration Inhibitory Factor) (Homo sapiens, UniProt P14174); assay: MIF-induced migration of human peripheral blood monocytes (PBMCs); format: cell-based; conditions: rhMIF 90 nM, dilution series of inhibitor
T1 sequence (P14174 2-115 limits assumed): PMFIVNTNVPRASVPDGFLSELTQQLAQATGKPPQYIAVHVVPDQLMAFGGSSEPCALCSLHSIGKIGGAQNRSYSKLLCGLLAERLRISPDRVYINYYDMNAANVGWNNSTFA
Method: The chemo attractant activities of rhMIF (recombinant human Macrophage migration Inhibitory Factor) and the effect of inhibitors were measured using human peripheral blood monocytes (PBMCs) isolated from whole blood by centrifugation on Histopaque-1077 (Sigma). The cells were washed in RPMI-1640, diluted to 1×10^6 cells/ml and analyzed immediately. These assays were carried out in 24 well tissue culture plates utilizing 8.0 μm cell culture inserts (Falcon). Recombinant hMIF (90 nM), diluted in RPMI was placed in the cells of a 24 well plate with or without inhibitor (10-fold molar excess or dilution series) and allowed to incubate for 30 min at 37° C., 5% CO2. Washed human monocytes were added to the upper chamber of 8.0 μm cell culture inserts and allowed to incubate for 3 hrs at 37° C., 5% CO2. Cells that migrate through the membrane were fixed in methanol and stained with Geimsa, prior to cell counting using light microscopy.
Results are expressed as the mean number of cells counted per high power field for each of two replicates to obtain statistically significant data. (Legend: −Star=no human MIF, Skull=no human MIF+10 uM (S)-AV1013. See FIGS. 5A and 5B.

CC(C)c1nn2ccccc2c1C(=O)[C@H](C)N [(S)-AV1013, (S)-2-amino-1-(2-isopropylpyrazolo[1,5-a]pyridin-3-yl)propan-1-one]
plasma levels of the (R) enantiomer after dosing (S) (in vivo racemization) [1]: no detectable plasma levels of the corresponding (R) enantiomer
plasma levels of the (R) enantiomer after dosing (S) (in vivo racemization) ([1]; listed as (S)-enantiomer): does not result in detectable levels of the (R)-enantiomer
attenuation of mechanical allodynia (50% paw withdrawal threshold) [2]: substantially more potent in treating neuropathic pain than the corresponding (R) enantiomer
attenuation of mechanical allodynia (50% paw withdrawal threshold) ([2]; listed as (S)-enantiomer): more potent in vivo than is the (R)-enantiomer
withdrawal behaviors relative to vehicle [3]: reduced withdrawal behaviors; also recorded: reduced withdrawal symptoms relative to those receiving vehicle
antagonism of MIF-induced cell migration [4]: antagonize MIF-induced macrophage migration in a dose-dependent fashion; also recorded: antagonize MIF-induced mononuclear cell migration in a similar dose dependent fashion
